Here are results for one molecule from US20180273970A1, “PLASMID, TRANSFORMED PLANT CELL AND TRANSGENIC PLANT COMPRISING THE SAME, AND METHODS FOR PREPARING A TRANSGENIC PLANT AND FOR INCREASING YIELD OF A PLANT UNDER ABIOTIC STRESSES” (Academia Sinica, priority 2014, published 2018).

For test [1], the system named is αAmy3 SRC promoter. Nature of the test: Rice embryo transient expression assay, SRC-35Smp:Luc reporter (luciferase). The test is classed as cell-based. The following applies: rice embryos, 1 μM ABA or 50 mM sorbitol, 24 h. How it is done:
FIG. 3. The highly conserved GKSKSF domain (KSD) is essential for SKINs to antagonize the function of SnRK1A. Rice embryos were transfected with plasmids, incubated in medium with 100 mM glucose (+S) or without glucose (−S) for 24 h, and assayed for luciferase activity. The luciferase activity in rice embryos bombarded with the SRC-35S mp-Luc construct only and in +S medium was set to 1×, and other values were calculated relative to this value. Error bars indicate the SE for three replicate experiments. (A) Plasmid constructs. (B) Rice embryos were co-transfected with effector Ubi:SnRK1A, Ubi:SKIN1 or Ubi:SKIN(Ri) alone and reporter SRC-35Smp:Luc, or co-transfected with effectors Ubi:SnRK1A and Ubi:SKIN or Ubi:SKIN(Ri) and reporter SRC-35Smp:Luc. (C) Total cellular proteins were extracted from rice embryos transfected with Ubi:SnRK1A, Ubi:SKIN or Ubi:SnRK1A and Ubi:SKIN by particle bombardment and subjected to Western blot analysis using antibodies against SnRK1A and the HA tag fused to at the N-terminus of SKINs. (D) Rice embryos were co-transfected with effectors Ubi:SnRK1A and Ubi:SKIN1 (wild-type or truncated) and reporter SRC-35Smp:Luc. (E) Rice embryos were co-transfected with effectors Ubi:SnRK1A and Ubi:SKIN (wild-type, KSD deleted, or KSD replaced with 6 Ala) and reporter SRC-35Smp:Luc.
FIG. 21. ABA and sorbitol suppress the function of SnRK1A in activation of αAmy3 SRC promoter. Rice embryos and barley aleurones were transfected with reporter SRC-35Smp:Luc with or without effectors, incubated with or without ABA for 24 h, and assayed for luciferase activity. The luciferase activity in embryos or aleurones bombarded with the SRC-35S mp-Luc construct only and in +S medium was set to 1×, and other values were calculated relative to this value. Error bars indicate the SE for three replicate experiments. (A) Plasmid constructs. (B) Barley aleurones were transfected with effector Ubi:SnRK1A, Ubi:SKIN1 or Ubi:SKIN(Ri) alone and reporter SRC-35Smp:Luc, or co-transfected with effectors Ubi:SnRK1A and Ubi:SKIN or Ubi:SKIN(Ri) and reporter SRC-35Smp:Luc. (C) Rice embryos (upper panel) were transfected with or without Ubi:SnRK1A and incubated with or without 1 μM ABA or 50 mM sorbitol, and barley aleurones (lower panel) were transfected with or without Ubi:SnRK1A and incubated with 5 μM ABA or 400 mM sorbitol.
Rice embryos were prepared for particle bombardment as described (Chen et al., 2006). The rice embryos were bombarded with reporter, effectors and internal control at a ratio of 4:2:1 for single effector or 4:2:2:1 for two effectors. The internal control (Ubi::GUS) was used to normalize the reporter enzyme activity because different transformation efficiency might occur in each independent experiment. Bombarded rice embryos were divided into two halves, with half being incubated in MS liquid medium containing 100 mM Glc, and the other half grown in MS liquid containing 100 mM mannitol, for 24 h. Total proteins were extracted for embryos with a cell lysis buffer [0.1 M K-phosphate, pH 7.8, 1 mM EDTA, 10% glycerol, 1% triton X-100, and 7 mM β-mercaptoethanol]. GUS assay buffer [0.1 M Na-phosphate, 20 mM EDTA, 0.2% sarcosine, 0.2% Triton X-100, and 20 mM β-mercaptoethanol] was used for GUS activity assay. The activity assay of GUS and luciferase were described elsewhere (Lu et al., 1998). All bombardments were repeated at least three times.

The subject of test [2] is interaction between SnRK1A and SKINs. Nature of the test: Rice embryo GAL4-UAS two-hybrid assay (luciferase). In kind it is cell-based. The settings on record: rice embryos, −S medium containing 1 μM ABA. The method, then:
FIG. 2. The N-terminus of SKIN interacts with the kinase domain of SnRK1A. For the GAL4-UAS two-hybrid assay, rice embryos were co-transfected with effector and reporter plasmids, incubated in −S medium for 24 h, and assayed for luciferase activity. The luciferase activity in rice embryos bombarded with effectors Ubi:GAD, Ubi:GBD and reporter 5XUAS-35S mp:Luc was set to 1×, and other values were calculated relative to this value. Error bars indicate the SE for three replicate experiments. Significance levels: * p<0.1, ** p<0.05. The Y axis indicates the relative luciferase activity with different constructs. (A) Plasmid constructs. (B) Rice embryos were co-transfected with effectors Ubi:GAD-SnRK1A and Ubi:GBD-SKIN (wild type or truncated) and reporter 5XUAS-35S mp:Luc. (C) Rice embryos were co-transfected with effectors Ubi:GAD-SnRK1A [wild type, kinase domain (KD) or regulatory (RD)], Ubi:GBD-SKIN and reporter 5XUAS-35S mp:Luc. (D) Rice embryos were co-transfected with effectors Ubi:GAD-SnRK1A and Ubi:GBD-SKIN and reporter 5XUAS-35S mp:Luc, and incubated in −S medium containing 1 μM ABA.
Rice embryos were prepared for particle bombardment as described (Chen et al., 2006). The rice embryos were bombarded with reporter, effectors and internal control at a ratio of 4:2:1 for single effector or 4:2:2:1 for two effectors. […]

`CC1=CC(=O)CC(C)(C)[C@@]1(O)/C=C/C(C)=C\C(=O)O` [ABA, abscisic acid]: the “Effect on αAmy3 SRC promoter (luciferase activity), alone and SnRK1A-activated” value in test [1] is “suppressed”. For the same molecule, the “Effect on the interaction between SnRK1A and SKINs” value in test [2] was “enhanced”.
